# Data taken from patent publication US8357687B2, “Macrocyclic indole derivatives useful as hepatitis C virus inhibitors” (priority 2008, dated 2013).
# What was measured:
# [1] = tested on: NS5B chimeric replicon of clinical isolate 1a—6 in Huh7-cure cells; test: Transient replicon assay, chimeric replicon of clinical isolate 1a—6 (CI2); type: cell-based, HCV genotype 1a; conditions: Hepatitis C virus, 48 h, read-out: EC50-T CI2
# [2] = tested on: NS5B chimeric replicon of clinical isolate 1a_H77 in Huh7-cure cells; test: Transient replicon assay, chimeric replicon of clinical isolate 1a_H77 (CI1); type: cell-based, HCV genotype 1a; conditions: Hepatitis C virus, 48 h, read-out: EC50-T CI1
# [3] = tested on: wild type replicon of genotype 1b (con1b) in Huh7-cure cells; test: Transient replicon assay, wild type replicon of genotype 1b (Con1b); type: cell-based, HCV genotype 1b; conditions: Hepatitis C virus, transient wild type replicon genotype 1b, 48 h, luciferase, read-out: EC50-T Con1b
# [4] = biological target: T1, HCV NS5B polymerase (NS5BΔC21) (Hepatitis C virus genotype 1b, UniProt Q9WMX2); test: RNA-dependent RNA polymerase assay (enzyme inhibition assay); type: biochemical, HCV (genotype 1b consensus strain Con1)
# T1 construct: NS5B (genotype 1b consensus strain Con1) lacking 21 C-terminal residues; made in house; host or cells: E. coli Rosetta 2 (DE3)
# Excerpt: The coding sequence for NS5B (genotype 1b consensus strain Con1) lacking 21 C-terminal residues was amplified from plasmid pFKI389/ns3-3′ (Genbank accession no. AJ242654), plasmid pCV-H77C (Genbank accession no. AF 011751.1) and subcloned into the pET21b plasmid as described previously (Pauwels et al. J. Virol., 2007). The NS5BΔC21 expression constructs were transformed into E. coli Rosetta 2 (DE3) (Novagen, Madison, Wis.). One hundred milliliters of LB-medium supplemented with carbenicillin (50 μg/mL) and chloramphenicol (34 μg/mL) was inoculated with one colony, grown overnight, and transferred to fresh LB-medium supplemented with 3% ethanol, carbenicillin and chloramphenicol, at a ratio of 1:200. Cells were grown to an optical density at 600 nm of 0.6, after which the expression cultures were shifted to a growth temperature of 20° C. following induction with ispopropyl-1-thio-β-D-galactopyranoside and MgCl2 at a final concentration of 0.4 mM and 10 μM, respectively. After 18 h of induction, cells were harvested by centrifugation and resuspended in 20 mM Tris-HCl, pH 7.5, 300 mM NaCl, 10% glycerol, 0.1% NP40, 4 mM MgCl2, 5 mM DTT supplemented with EDTA-free Complete Protease Inhibitor (Roche, Basel, Switzerland). Cell suspensions were disrupted by sonication and incubated with 10-15 mg/L of DNase I (Roche, Basel, Switzerland) for 30 min. Cell debris was removed through ultracentrifugation at 30,000×g for 1 hour and clarified cell lysate was flash frozen and stored at −80° C. prior to purification.
# Clarified cell lysate was thawed and subsequently loaded onto a 5 mL pre-packed HisTrap FF column equilibrated with 25 mM HEPES, pH 7.5, 500 mM NaCl, 10% glycerol and 5 mM DTT. Proteins were eluted with 500 mM imidazole at a flow rate of 1 mL/min. Fractions containing the protein of interest were applied onto a pre-packed 26/10 HiPrep Desalting Column equilibrated with 25 mM HEPES, pH 7.5, 250 mM NaCl, 10% glycerol and 5 mM DTT. The buffer-exchanged NS5B peak was then applied onto a 6 ml Resource S column. Protein was eluted with an increasing salt gradient and fractions collected. Protein purity was assessed on Nu-PAGE pre-cast gels (Invitrogen, Carlsbad, Calif.). Purified NS5B samples were concentrated using Centri-Prep concentrators (Millipore, Billerica, Mass., USA) and protein concentrations were determined by spectrofotometry with the Nanodrop (Nanodrop Technologies, Wilmington, Del., USA).
# Measurement of HCV NS5B polymerization activity was performed by evaluating the amount of radio labeled GTP incorporated by the enzyme in a newly synthesized RNA using […] RNA template/primer. The RdRp assay was carried out in 384-well plates. 2.5 nM of purified NS5B enzyme was pre-incubated for 10 min with 150 nM 5′-biotinylated oligo(rG13) primer, 15 nM poly(rC) template, in 18 mM Tris-HCl, pH 7.5, 5 mM MgCl2, 20.5 mM KCl, 17 mM NaCl and 2.5 mM of DTT. The test compounds were the added to the preformed polymerase-template complex, and incubated at room temperature for 15 min before the addition 600 nM of GTP, and 0.13 μCi of [^3H]GTP. 30 μL reaction mixture was incubated at room temperature for 2 h before stopping the reaction by adding 30 μL of streptavidin coated SPA-beads (GE Healthcare, Uppsala, Sweden) in 0.5 M EDTA. […] IC50 values represent the concentration of compound required to decrease by 50% the amount of RNA produced which is measured by the detection of incorporated radiolabeled GTP.
# [5] = biological target: T2, NS5B wild-type enzyme genotype 4a (UniProt O39929); test: Enzyme binding assay (SPR, Biacore), genotype 4a; parameters: species or system HCV genotype 4a; conditions: for Kd: Kd=koff/kon; for koff / kon: SPR, 25° C.; for t1/2 (dissociative half-life): t1/2=ln(2)/koff
# T2 construct: fused on or other part: His6 tag
# Procedure: (§1) The compounds of formula (I) were examined for their enzymatic binding kinetics or affinity using a Surface Plasmon Resonance (SPR)-based method, i.e. Biacore. A slow dissociation of the inhibiting compound from its viral target (low koff, low Kd) is believed to potentially reduce the development of drug resistance against anti-viral drugs (Dierynck et al. 2007. Journal of Virology, vol. 81, No. 24, 13845-13851). All measurements were performed on a Biacore T100 instrument (GE Healthcare). The purified HIS6-tagged NS5BΔC21 polymerases were immobilized using non-covalent capturing to an NTA sensor chip (GE Healthcare) in immobilization buffer (20 mM MOPS pH 7.4, 500 mM NaCl, 0.005% Tween-P20, 1 mM DTT, 50 μM EDTA). Interaction studies were all performed at 25° C. Inhibitors were serially diluted in running buffer (20 mM Tris-HCl pH 7.4, 150 mM NaCl, 50 μM EDTA, 1 mM DTT, 0.005% Tween-P20) containing 5% dimethyl sulfoxide (DMSO). Single-cycle kinetics were used, in which 5 increasing concentrations of compound were injected for a period of 300 s each in 1 single cycle, and dissociation was monitored for a period of 1200 s. The sensor surface was completely regenerated in between the cycles. Data were analyzed using simultaneous nonlinear regression analysis (global fitting) adapted for single-cycle kinetics with Biacore T100 BiaEval evaluation software 2.0 (GE Healthcare). The individual rate constants kon and koff and a derived affinity constant, Kd=koff/kon, were determined by a kinetic evaluation of the sensorgrams. The kinetic models accounted for bulk and limited mass transport effects. Every analysis was performed at least in two independent experiments. The dissociation rate of a kinetic interaction can be translated into a compound residence time (dissociative half-life t1/2=ln(2)/koff) representative for the interaction time between the polymerase and its inhibitor.
# (§2) The observed association rate constants (kon), dissociation rate constants (koff), derived affinity constant (Kd) and dissociative half-life (t1/2) measured for compounds of formula (I) or subgroups thereof on NS5B wild-type enzyme genotypes 1a, 1b and 4a are given in Table 2.
# [6] = biological target: T3, NS5B wild-type enzyme genotype 1a (Hepatitis C virus genotype 1a, UniProt P27958); test: Enzyme binding assay (SPR, Biacore), genotype 1a; parameters: species or system HCV genotype 1a; conditions: for kon / t1/2 (dissociative half-life): genotype 1a; for kon: SPR, 25° C.; for t1/2 (dissociative half-life): t1/2=ln(2)/koff
# T3 construct: The purified HIS6-tagged NS5BΔC21 polymerases were immobilized; made in house; host or cells: E. coli Rosetta 2 (DE3)
# Procedure: as §1, §2
# [7] = biological target: T4, NS5B wild-type enzyme genotype 1b (Hepatitis C virus genotype 1b, UniProt Q9WMX2); test: Enzyme binding assay (SPR, Biacore), genotype 1b; conditions: for koff / kon / t1/2 (dissociative half-life): genotype 1b; for koff / kon: SPR, 25° C.; for t1/2 (dissociative half-life): t1/2=ln(2)/koff
# T4 construct: NS5B (genotype 1b consensus strain Con1) lacking 21 C-terminal residues; made in house; host or cells: E. coli Rosetta 2 (DE3)
# Procedure: as §1, §2
# T3 sequence (P27958 2421-2990): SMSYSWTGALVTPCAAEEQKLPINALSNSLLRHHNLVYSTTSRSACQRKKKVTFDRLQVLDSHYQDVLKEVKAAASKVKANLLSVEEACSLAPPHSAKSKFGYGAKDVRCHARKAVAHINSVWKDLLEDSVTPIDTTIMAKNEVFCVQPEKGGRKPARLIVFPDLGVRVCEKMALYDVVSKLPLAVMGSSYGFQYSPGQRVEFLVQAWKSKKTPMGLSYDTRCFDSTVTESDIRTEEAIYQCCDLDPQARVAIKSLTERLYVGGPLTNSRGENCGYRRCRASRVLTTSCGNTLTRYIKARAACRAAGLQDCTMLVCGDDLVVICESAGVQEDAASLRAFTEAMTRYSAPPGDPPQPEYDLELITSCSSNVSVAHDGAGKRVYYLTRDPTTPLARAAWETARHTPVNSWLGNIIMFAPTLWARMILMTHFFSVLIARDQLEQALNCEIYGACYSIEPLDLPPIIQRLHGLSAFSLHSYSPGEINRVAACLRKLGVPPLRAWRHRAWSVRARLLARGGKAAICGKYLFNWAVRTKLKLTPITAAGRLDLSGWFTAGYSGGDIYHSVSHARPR
SMILES,EC50 [1],EC50 [2],EC50 [3],IC50 [4],Kd [5],koff [5],kon [5],t1/2 (dissociative half-life) [5],Kd [6],koff [6],kon [6],t1/2 (dissociative half-life) [6],Kd [7],koff [7],kon [7],t1/2 (dissociative half-life) [7]
"COc1ccc2c(c1)OCC(=O)N(C)CCCCN(C)S(=O)(=O)NC(=O)c1ccc3c(C4CCCCC4)c-2n(C)c3c1 [Compound 53, 24-cyclohexyl-22-methoxy-4,9,18-trimethyl-4,5,6,7,8,9-hexahydro-13,17:16,19-di(metheno)-1,10,4,9,11,18-benzoxathiatetraazacyclohenicosine-3,12(2H,11H,18H)-dione 10,10-dioxide]",66 nM,44 nM,83 nM,–,–,–,–,–,–,–,–,–,–,–,–,–
"CN1CCN2CCN(CC2)C(=O)COc2ccccc2-c2c(C3CCCCC3)c3ccc(cc3n2C)C(=O)NS1(=O)=O [Compound 22, 30-cyclohexyl-12,21-dimethyl-4-oxa-20-thia-1,12,19,21,24-pentaazapentacyclo[22.2.2.1^11,14.1^13,17.0^5,10]triaconta-5,7,9,11(30),13(29),14,16-heptaene-2,18-dione 20,20-dioxide]",201 nM,156 nM,164 nM,181 nM,–,–,–,–,–,–,–,–,–,–,–,–
"CN1CCCCCNC(=O)COc2ccccc2-c2c(C3CCCCC3)c3ccc(cc3n2C)C(=O)NS1(=O)=O [Compound 21, 25-cyclohexyl-10,19-dimethyl-5,6,7,8,9,10-hexahydro-2H-14,18:17,20-di(metheno)-1,11,4,10,12,19-benzoxathiatetraazacyclodocosine-3,13(4H,12H,19H)-dione 11,11-dioxide]",95 nM,55 nM,123 nM,148 nM,–,–,–,–,–,–,–,–,–,–,–,–
"CN1CCCCCNC(=O)COc2cc(F)ccc2-c2c(C3CCCCC3)c3ccc(cc3n2C)C(=O)NS1(=O)=O [Compound 50, 25-cyclohexyl-23-fluoro-10,19-dimethyl-5,6,7,8,9,10-hexahydro-2H-14,18:17,20-di(metheno)-1,11,4,10,12,19-benzoxathiatetraazacyclodocosine-3,13(4H,12H,19H)-dione 11,11-dioxide]",156 nM,117 nM,254 nM,109 nM,9.1 nM,0.002 s⁻¹,2.2E+05 1/MS,5.72 min,40 nM,0.0067 s⁻¹,1.7E+05 1/MS,1.72 min,25 nM,0.0006 s⁻¹,2.3E+04 1/MS,19.38 min
"COc1ccc2c(c1)OCC(=O)N(C)CCOCCN(C)S(=O)(=O)NC(=O)c1ccc3c(C4CCCCC4)c-2n(C)c3c1 [Compound 54, 25-cyclohexyl-23-methoxy-4,10,19-trimethyl-5,6,9,10-tetrahydro-2H,8H-14,18:17,20-di(metheno)-1,7,11,4,10,12,19-benzodioxathiatetraazacyclodocosine-3,13 (4H,12H,19H)-dione 11,11-dioxide]",81 nM,67 nM,103 nM,–,–,–,–,–,–,–,–,–,–,–,–,–
"CC(C)n1c2c(C3CCCCC3)c3ccc(cc31)C(=O)NS(=O)(=O)N(C)CCOCCN(C)C(=O)COc1ccccc1-2 [Compound 52, 25-cyclohexyl-4,10-dimethyl-19-(1-methylethyl)-5,6,9,10-tetrahydro-2H,8H-14,18:17,20-di(metheno)-1,7,11,4,10,12,19-benzodioxathiatetraazacyclodocosine-3,13 (4H,12H,19H)-dione 11,11-dioxide]",7960 nM,7140 nM,7660 nM,1660 nM,–,–,–,–,–,–,–,–,–,–,–,–
"CN1CCCCN(C)S(=O)(=O)NC(=O)c2ccc3c(C4CCCCC4)c(n(C4CCCC4)c3c2)-c2ccccc2OCC1=O [Compound 40, 24-cyclohexyl-18-cyclopentyl-4,9-dimethyl-4,5,6,7,8,9-hexahydro-13,17:16,19-di(metheno)-1,10,4,9,11,18-benzoxathiatetraazacyclohenicosine-3,12(2H,11H,18H)-dione 10,10-dioxide]",5270 nM,5150 nM,7340 nM,1090 nM,–,–,–,–,–,–,–,–,–,–,–,–
"CN1CCCCCNC(=O)COc2ccc(F)cc2-c2c(C3CCCCC3)c3ccc(cc3n2C)C(=O)NS1(=O)=O [Compound 51, 25-cyclohexyl-22-fluoro-10,19-dimethyl-5,6,7,8,9,10-hexahydro-2H-14,18:17,20-di(metheno)-1,11,4,10,12,19-benzoxathiatetraazacyclodocosine-3,13(4H,12H,19H)-dione 11,11-dioxide]",–,–,–,88 nM,11 nM,0.0022 s⁻¹,1.9E+05 1/MS,5.33 min,39 nM,0.0035 s⁻¹,9.5E+04 1/MS,3.3 min,16 nM,0.00031 s⁻¹,2.0E+04 1/MS,37.38 min
